{
  "source": "patent US12109246B2",
  "about": "“Composition for the treatment and/or prevention of lower urinary tract symptoms” (SERELYS PHARMA S.A.M., priority 2019, dated 2024)",
  "biological_target": "T1, muscarinic M3 receptor (Homo sapiens, UniProt P20309)",
  "T1 construct": "using HEK293 cells which express the receptor endogenously; endogenous in cells; host or cells: HEK293",
  "T1 sequence (P20309 whole entry)": "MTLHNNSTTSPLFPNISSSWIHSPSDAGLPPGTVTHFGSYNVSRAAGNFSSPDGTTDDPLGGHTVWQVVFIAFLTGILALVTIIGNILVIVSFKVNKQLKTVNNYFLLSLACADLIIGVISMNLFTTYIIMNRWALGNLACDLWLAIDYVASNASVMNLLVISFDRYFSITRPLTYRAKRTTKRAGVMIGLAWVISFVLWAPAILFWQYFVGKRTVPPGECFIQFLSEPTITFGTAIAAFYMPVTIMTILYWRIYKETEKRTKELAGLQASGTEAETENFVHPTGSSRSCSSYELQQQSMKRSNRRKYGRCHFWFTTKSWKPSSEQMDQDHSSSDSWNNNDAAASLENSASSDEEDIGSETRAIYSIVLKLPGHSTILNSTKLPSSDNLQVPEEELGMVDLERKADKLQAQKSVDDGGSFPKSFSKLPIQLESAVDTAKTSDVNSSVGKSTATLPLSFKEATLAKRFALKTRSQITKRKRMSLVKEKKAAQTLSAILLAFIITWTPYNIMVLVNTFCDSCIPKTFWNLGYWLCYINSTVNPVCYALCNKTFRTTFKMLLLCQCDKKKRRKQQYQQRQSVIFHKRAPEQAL",
  "test": "Antagonist activity on muscarinic M3 receptor, FLIPR Tetra calcium assay in HEK293 cells",
  "format": "cell-based",
  "conditions": "antagonist mode versus carbachol at its EC50, HEK293 cells, calcium fluorescence",
  "data": [
    {"substance": "Vitamin E [Vitamin E (as in Example 1)]", "values": [
      {"measurement": "IC50", "value": ">1", "unit": "µg/mL"}
    ]}
  ]
}
